Converted amounts (≈) assume the structure as drawn. Each block holds one compound with its values, some of them ahead of it. The source made the active and inactive calls. No cut-off for these calls is given here.
What was measured:
[1] = tested on: HT-29; assay: Antiproliferative activity against human HT-29 cells assessed as inhibition of cell growth incubated for 72 hrs by MTT assay; type: functional, cell-based; conditions: HT-29, 72 h
[2] = tested on: HCT-116; assay: Antiproliferative activity against human […] cells assessed as inhibition of cell growth incubated for 72 hrs by MTT assay; type: functional, cell-based; conditions: HCT-116, 72 h
[3] = tested on: LoVo; assay: Antiproliferative activity against human LoVo cells assessed as inhibition of cell growth incubated for 72 hrs by MTT assay; type: functional, cell-based
[4] = tested on: RKO; assay: Antiproliferative activity against human RKO cells assessed as inhibition of cell growth incubated for 72 hrs by MTT assay; type: functional, cell-based
[5] = tested on: HGC-27; assay: Antiproliferative activity against human HGC-27 cells assessed as inhibition of cell growth incubated for 72 hrs by MTT assay; type: functional, cell-based; conditions: HGC-27, 72 h
[6] = tested on: MGC-803; assay: Antiproliferative activity against human MGC-803 cells assessed as inhibition of cell growth incubated for 72 hrs by MTT assay; type: functional, cell-based; conditions: MGC-803, 72 h
[7] = tested on: SGC-7901; assay: Antiproliferative activity against human SGC-7901 cells assessed as inhibition of cell growth incubated for 72 hrs by MTT assay; type: functional, cell-based; conditions: SGC-7901, 72 h
[8] = tested on: Huh-7; assay: Antiproliferative activity against human Huh-7 cells assessed as inhibition of cell growth incubated for 72 hrs by MTT assay; type: functional, cell-based; conditions: Huh-7, 72 h
[9] = tested on: SK-HEP1; assay: Antiproliferative activity against human SK-HEP1 cells assessed as inhibition of cell growth incubated for 72 hrs by MTT assay; type: functional, cell-based; conditions: SK-HEP1, 72 h
[10] = tested on: MCF7; assay: Antiproliferative activity against human MCF7 cells assessed as inhibition of cell growth incubated for 72 hrs by MTT assay; type: functional, cell-based; conditions: MCF7, 72 h
[11] = Aqueous solubility of compound by HPLC analysis; type: physicochemical
[12] = Half-life in male Sprague-Dawley rat at 50 mg/kg, ip measured after 24 hrs by LC-MS/MS analysis; type: ADME, organism-based; conditions: in vivo
[13] = Tmax in male Sprague-Dawley rat at 50 mg/kg, ip measured after 24 hrs by LC-MS/MS analysis; type: ADME, organism-based; conditions: in vivo
[14] = Cmax in male Sprague-Dawley rat at 50 mg/kg, ip measured after 24 hrs by LC-MS/MS analysis; type: ADME, organism-based; conditions: in vivo
[15] = AUC (0 to t) in male Sprague-Dawley rat at 50 mg/kg, ip measured after 24 hrs by LC-MS/MS analysis; type: ADME, organism-based; conditions: in vivo
[16] = tested on: LoVo; assay: Antiproliferative activity against human LoVo cells assessed as reduction in cell viability measured after 24 hrs; type: functional, cell-based; conditions: dose 40-200 nmol/L
[17] = tested on: RKO; assay: Antiproliferative activity against human RKO cells assessed as reduction in cell viability measured after 24 hrs; type: functional, cell-based; conditions: dose 40-200 nmol/L
[18] = tested on: LoVo; assay: Cell cycle arrest in human LoVo cells assessed as accumulation of cells at G1 phase cells at 90 nM incubated for 24 hrs by […]PI staining based flow cytometric analysis (reference value: 29.69 %); type: functional
[19] = tested on: LoVo; assay: Cell cycle arrest in human LoVo cells assessed as accumulation of cells at G2 phase cells at 90 nM incubated for 24 hrs by […]PI staining based flow cytometric analysis (reference value: 14.84 %); type: functional
[20] = tested on: LoVo; assay: Cell cycle arrest in human LoVo cells assessed as accumulation of cells at S phase cells at 90 nM incubated for 24 hrs by […]PI staining based flow cytometric analysis (reference value: 54.99 %); type: functional
[21] = tested on: RKO; assay: Cell cycle arrest in human RKO cells assessed as accumulation of cells at G1 phase at 90 nM incubated for 24 hrs by […]PI staining based flow cytometric analysis (reference value: 35.29 %); type: functional
[22] = tested on: RKO; assay: Cell cycle arrest in human RKO cells assessed as accumulation of cells at G2 phase at 90 nM incubated for 24 hrs by […]PI staining based flow cytometric analysis (reference value: 20.07 %); type: functional
[23] = tested on: RKO; assay: Cell cycle arrest in human RKO cells assessed as accumulation of cells at S phase at 90 nM incubated for 24 hrs by […]PI staining based flow cytometric analysis (reference value: 43.36 %); type: functional
[24] = tested on: LoVo; assay: Induction of morphological changes in human LoVo cells assessed as appearance of condensed morphology at 90 nM incubated for 24 hrs by Giemsa staining based microscopic analysis; type: functional, cell-based
[25] = tested on: LoVo; assay: Induction of morphological changes in human LoVo cells assessed as appearance of contracted nucleus at 90 nM incubated for 24 hrs by Giemsa staining based microscopic analysis; type: functional, cell-based
[26] = tested on: RKO; assay: Induction of morphological changes in human RKO cells assessed as appearance of condensed morphology at 90 nM incubated for 24 hrs by Giemsa staining based microscopic analysis; type: functional, cell-based
[27] = tested on: RKO; assay: Induction of morphological changes in human RKO cells assessed as appearance of contracted nucleus at 90 nM incubated for 24 hrs by Giemsa staining based microscopic analysis; type: functional, cell-based
[28] = tested on: LoVo; assay: Induction of apoptosis in human LoVo cells assessed as apoptosis rate at 90 nM incubated for 24 hrs by Annexin V/PI staining based flow cytometric analysis (reference value: 4.71 %); type: functional
[29] = tested on: RKO; assay: Induction of apoptosis in human RKO cells assessed as apoptosis rate at 90 nM incubated for 24 hrs by Annexin V/PI staining based flow cytometric analysis (reference value: 4.87 %); type: functional
[30] = Apparent clearance during terminal phase in male Sprague-Dawley rat at 50 mg/kg, ip measured after 24 hrs by LC-MS/MS analysis; type: ADME, organism-based; conditions: in vivo, read-out: CLz/F (converted)
[31] = tested on: Mitochondrial membrane; assay: Induction of mitochondrial membrane potential loss in human LoVo cells assessed as decrease in TMRE positive cells at 90 nM incubated for 24 hrs by TMRE staining based flow cytometric analysis; type: cell membranes
[32] = tested on: Mitochondrial membrane; assay: Induction of mitochondrial membrane potential loss in human RKO cells assessed as decrease in TMRE positive cells at 90 nM incubated for 24 hrs by TMRE staining based flow cytometric analysis; type: cell membranes
[33] = tested on: LoVo; assay: Antitumor activity against human LoVo cells xenografted in male BALB/c nude mouse assessed as tumor growth inhibition at 40 mg/kg, ip administered once daily for 14 days relative to control; type: functional; conditions: 336 h, time 14 day, read-out: TGI
[34] = Toxicity in male BALB/c nude mouse xenografted with human LoVo cells assessed as body weight loss at 40 mg/kg, ip administered once daily for 14 days; type: organism-based; conditions: in vivo, 336 h, time 14 day
[35] = molecular target: T1, DNA topoisomerase 1 (Homo sapiens) (UniProt P11387); assay: Inhibition of topoisomerase 1 (unknown origin) mediated DNA relaxation at 100 uM preincubated for 20 mins followed by pBR322 plasmid DNA addition and measured after 15 mins by red nucleic acid gel staining based agarose gel electrophoresis; conditions: time 35.0 min
T1 sequence (whole entry): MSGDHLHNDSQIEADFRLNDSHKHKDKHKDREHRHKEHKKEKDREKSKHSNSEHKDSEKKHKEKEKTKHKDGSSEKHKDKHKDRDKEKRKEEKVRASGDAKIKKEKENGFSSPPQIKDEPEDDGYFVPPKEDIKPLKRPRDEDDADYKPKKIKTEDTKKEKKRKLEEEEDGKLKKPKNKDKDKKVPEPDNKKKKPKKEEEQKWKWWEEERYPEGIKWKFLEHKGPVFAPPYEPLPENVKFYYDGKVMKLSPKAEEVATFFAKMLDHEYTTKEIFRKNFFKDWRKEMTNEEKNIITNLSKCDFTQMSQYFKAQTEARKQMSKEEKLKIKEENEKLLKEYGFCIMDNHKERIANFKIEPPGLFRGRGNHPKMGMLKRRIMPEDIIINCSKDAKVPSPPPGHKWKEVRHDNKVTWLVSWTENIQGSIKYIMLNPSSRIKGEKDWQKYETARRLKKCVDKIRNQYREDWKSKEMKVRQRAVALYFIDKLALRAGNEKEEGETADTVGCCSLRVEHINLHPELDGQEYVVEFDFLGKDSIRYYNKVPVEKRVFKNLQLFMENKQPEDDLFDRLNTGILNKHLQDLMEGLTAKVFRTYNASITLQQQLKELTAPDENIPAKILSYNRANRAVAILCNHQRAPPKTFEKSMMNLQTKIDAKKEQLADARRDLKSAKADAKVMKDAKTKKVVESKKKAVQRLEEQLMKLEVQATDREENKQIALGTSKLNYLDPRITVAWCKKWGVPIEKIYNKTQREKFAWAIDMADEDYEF

SMILES: CC(C)(C)OC(=O)NCC(=O)Oc1ccc2[nH]c3c(c2c1)CCN1C(=O)c2cc(F)ccc2N(c2cccc(F)c2)[C@@H]31
IC50 [1]: 24100 nM | IC50 [2]: 33100 nM | IC50 [3]: 26400 nM | IC50 [4]: 38600 nM | IC50 [5]: 32100 nM | IC50 [6]: 29600 nM | IC50 [7]: 42600 nM | IC50 [8]: 17200 nM | IC50 [9]: 30500 nM | IC50 [10]: 38900 nM

SMILES: O=C1c2cc(F)ccc2N(c2cccc(F)c2)[C@@H]2c3[nH]c4ccc(O)cc4c3CCN12
IC50 [1]: 210 nM | IC50 [2]: 270 nM | IC50 [3]: 170 nM | IC50 [4]: 130 nM | solubility [11]: 3.24 µg/mL (≈ 7.76 µM) | half-life [12]: 4.18 h | Tmax [13]: 0.5 h | Cmax [14]: 2190 ng/mL | AUC(0-t) at 24 h [15]: 4350 ng·h/mL | Activity [16]: Dose-dependent-effect | Activity [17]: Dose-dependent-effect | Activity [18]: 18.84% | Activity [19]: 31.88% | Activity [20]: 48.04% | Activity [21]: 35.52% | Activity [22]: 42.34% | Activity [23]: 21.88% | Activity [24]: Active | Activity [25]: Active | Activity [26]: Active | Activity [27]: Active | Activity [28]: 25.44% | Activity [29]: 13.9% | CL/F [30]: 77.8 mL/min/kg | Activity [31]: Active | Activity [32]: Active | inhibition in vivo at 40 mg/kg [33]: 51.2% | Activity [34]: Toxic

SMILES: CSCC[C@H](NC(=O)OC(C)(C)C)C(=O)Oc1ccc2[nH]c3c(c2c1)CCN1C(=O)c2cc(F)ccc2N(c2cccc(F)c2)[C@H]31
IC50 [1]: 330 nM | IC50 [2]: 360 nM | IC50 [3]: 200 nM | IC50 [4]: 140 nM | IC50 [5]: 210 nM | IC50 [6]: 330 nM | IC50 [7]: 510 nM | IC50 [8]: 210 nM | IC50 [9]: 680 nM | IC50 [10]: 780 nM

More lines, main results first:

IC50 [1]: 540 nM | IC50 [2]: 280 nM | IC50 [3]: 250 nM | IC50 [6]: 690 nM | IC50 [7]: 1480 nM | IC50 [8]: 400 nM | IC50 [9]: 900 nM | IC50 [10]: 1280 nM
SMILES: CC(C)(C)OC(=O)N[C@@H](Cc1c[nH]c2ccccc12)C(=O)Oc1ccc2[nH]c3c(c2c1)CCN1C(=O)c2cc(F)ccc2N(c2cccc(F)c2)[C@H]31
IC50 [4]: 80 nM | IC50 [5]: 330 nM

IC50 [1]: 190 nM | IC50 [2]: 370 nM | IC50 [3]: 220 nM | IC50 [6]: 320 nM | IC50 [7]: 690 nM | IC50 [8]: 140 nM | IC50 [9]: 650 nM | IC50 [10]: 1100 nM
SMILES: CC(C)C[C@H](NC(=O)OC(C)(C)C)C(=O)Oc1ccc2[nH]c3c(c2c1)CCN1C(=O)c2cc(F)ccc2N(c2cccc(F)c2)[C@H]31
IC50 [4]: 150 nM | IC50 [5]: 300 nM

IC50 [1]: 160 nM | IC50 [2]: 200 nM | IC50 [3]: 350 nM | solubility [11]: 7.58 µg/mL (≈ 18.2 µM) | inhibition [35]: Active; Little Effect Observed
SMILES: O=C1c2cc(F)ccc2N(c2cccc(F)c2)C2c3[nH]c4ccc(O)cc4c3CCN12 (racemic)
IC50 [4]: 170 nM

From ChEMBL document CHEMBL6074684, “Structure-activity relationship study of novel evodiamine amino acid conjugates with potent anti-colorectal cancer efficacy” (Eur J Med Chem, 2025)
